Assay results: publication PMC9610285 (Pharmaceutics, 2022)
“And” between values parts separate entries of the source, which are not always exact repeats. Equal entries are not always repeated. Where two headings read alike, the source gives them in different places.

Conditions: 1 mg single oral dose, fasting; for AUC0-∞: not corrected by dose/weight
Method: The data used in this work were obtained from four bioequivalence clinical trials conducted at the Clinical Trials Unit of the Hospital Universitario de La Princesa (UECHUP) (EUDRA-CT IDs: 2012-004433-17, 2013-002159-14, 2014-001123-77 and 2021-000315-23). […] The reference formulation (R) in all cases was Azilect® 1 mg tablets (TEVA Pharmaceuticals Europe B.V.), which was compared against different test formulations (T), all of them 1 mg tablets, except in clinical trial 3, whose test formulation was orodispersible 1 mg. The four bioequivalence trials had two periods and two sequences (TR and RT). In the first period, the volunteers randomly were administered one of the two formulations and, in the following period, after a 7-day washout period, the opposite formulation. All of them were reviewed and approved by Independent Ethics Board (IEB) of the Hospital Universitario de La Princesa, and by the Spanish Drug Agency (AEMPS). In addition, they were performed in accordance with the guidelines of the International Conference on Harmonization for Good Clinical Practice (ICH-GCP), current Spanish legislation and the Revised Declaration of Helsinki. The pharmacogenetic study (SFC-FG-2020-1) was likewise approved by the IEB of Hospital Universitario de La Princesa (registry number 4176, 9 July 2020).
In each period, the drug was administered under fasting conditions, which were maintained until 5 h after drug administration. Each subject provided 20 or 21 blood samples (depending on the clinical trial) that were extracted by BD Vacutainer® vacuum system with EDTA K2 tubes for analysis at different times between 0 h (before receiving the drug) and up to 12 h after drug intake. […] A high-performance liquid chromatography coupled to triple quadrupole mass spectrometry (HPLC-MS/MS) analytical method was used. The latter was validated according to European regulations for bioequivalence assessment, with a lower limit of quantification (LLOQ) of 10 pg/mL and a calibration range of 10–10,000 pg/mL.
Pharmacokinetic parameters were calculated with WinNonlin Professional (Scientific Consulting, Inc., Cary, NC, USA) following a non-compartmental model. The area under the curve (AUC0-t), was obtained by the trapezoidal method. The extrapolation to infinity (AUC0-∞) was determined by the sum of two partial AUCs: AUCt-∞ calculated by the ratio Ct/k, where Ct is the last detectable concentration and k the elimination slope; plus AUC0-t. Cmax and tmax were directly obtained from the plasma time-concentration curves. t1/2 was calculated as Ln2/k. Plasma clearance adjusted for bioavailability (Cl/F) was calculated as dose/AUC. Finally, the volume of distribution adjusted for bioavailability (Vd/F) was calculated by dividing Cl/F by k.
The SPSS software (v23.0, SPSS Inc., Chicago, IL, USA) was used for statistical analyses. AUC0-∞, and Cmax were divided by the dose/weight (DW) ratio to correct sex-related variability related to a varying weight. For the same purpose, Vd/F and Cl/F were divided by weight. With the purpose of normalizing their distributions, all pharmacokinetic parameters were logarithmically transformed for statistical analysis. Initially, a univariate analysis was conducted of the demographic characteristics according to sex and ethnicity, and of the pharmacokinetic parameters or ADR incidence based on sex, biogeographical group (hereinafter, “ethnicity”), genotypes and phenotypes. T-tests were used for the comparison of means for variables with two categories and ANOVA tests for variables with three or more categories, followed by a Bonferroni post-hoc. The Shapiro–Wilk test was used to address the normality of demographic characteristics. For those not following a normal distribution, the nonparametric Kruskal–Wallis test was used.

[1] = SLC22A1*3 (rs12208357) *1/*1, n=104
[2] = SLC22A1*3 (rs12208357) *1/*3, n=8
[3] = SLC22A1*5 (rs34059508) *1/*1, n=113
[4] = SLC22A1*5 (rs34059508) *1/*5, n=5
[5] = Total with CYP1A2 diplotype, n=115
[6] = the single volunteer with the ADR headache

For `C#CCN[C@@H]1CCc2ccccc21` [rasagiline, Rasagiline], the tmax (CYP2C19 µM, n=3) was 0.61 ± 0.35 h, the “AUC0-∞/DW” value (CYP2C19 IM, n=36) was 258.70 ± 75.90 ng·kg·h/mL/mg and the Cmax/DW (CYP2C19 IM, n=36) was 415.50 ± 185.56 ng·kg/mL/mg. For the same compound, the t1/2 (CYP2C19 IM, n=36) was 2.85 ± 0.84 h, the tmax (CYP2C19 IM, n=36) was 0.46 ± 0.22 h and the “AUC0-∞/DW” value (CYP2C19 NM, n=56) was 267.83 ± 70.38 ng·kg·h/mL/mg. For the same compound, the Cmax/DW (CYP2C19 NM, n=56) was 402.65 ± 142.62 ng·kg/mL/mg, the t1/2 (CYP2C19 NM, n=56) was 2.67 ± 0.91 h and the tmax (CYP2C19 NM, n=56) was 0.53 ± 0.27 h. For the same compound, the “AUC0-∞/DW” value (CYP2C19 PM, n=2) was 302.71 ± 14.98 ng·kg·h/mL/mg, the Cmax/DW (CYP2C19 PM, n=2) was 412.92 ± 55.36 ng·kg/mL/mg and the t1/2 (CYP2C19 PM, n=2) was 1.55 ± 0.41 h. The tmax (CYP2C19 PM, n=2) was 0.75 ± 0.11 h, the “AUC0-∞/DW” value (CYP2C19 RM, n=21) was 274.03 ± 86.22 ng·kg·h/mL/mg and the Cmax/DW (CYP2C19 RM, n=21) was 426.69 ± 180.45 ng·kg/mL/mg. For the same compound, the t1/2 (CYP2C19 RM, n=21) was 2.66 ± 0.85 h, the tmax (CYP2C19 RM, n=21) was 0.41 ± 0.11 h and the “AUC0-∞/DW” value (Caucasian, n=83) was 258.45 ± 71.81 ng·kg·h/mL/mg. The Cmax/DW (Caucasian, n=83) was 418.18 ± 169.33 ng·kg/mL/mg, the t1/2 (Caucasian, n=83) was 2.56 ± 0.84 h and the tmax (Caucasian, n=83) was 0.47 ± 0.19 h. The “AUC0-∞/DW” value (Men, n=53) was 278.61 ± 73.51 ng·kg·h/mL/mg, the Cmax/DW (Men, n=53) was 447.91 ± 163.88 ng·kg/mL/mg and the t1/2 (Men, n=53) was 2.31 ± 0.85 *^& h. For the same compound, the tmax (Men, n=53) was 0.52 ± 0.28 h, the “AUC0-∞/DW” value (Mixed ethnicity, n=35) was 281.05 ± 80.09 ng·kg·h/mL/mg and the Cmax/DW (Mixed ethnicity, n=35) was 389.35 ± 147.25 ng·kg/mL/mg. The t1/2 (Mixed ethnicity, n=35) was 2.95 ± 0.94 h, the tmax (Mixed ethnicity, n=35) was 0.55 ± 0.31 h and the “AUC0-∞/DW” value (NAT2 RA, n=9) was 230.53 ± 67.28 ng·kg·h/mL/mg. It also gave a Cmax/DW (NAT2 RA, n=9) of 315.46 ± 178.72 ng·kg/mL/mg, a t1/2 (NAT2 RA, n=9) of 2.72 ± 0.68 h and a tmax (NAT2 RA, n=9) of 0.50 ± 0.24 h. The “AUC0-∞/DW” value (NAT2 SA, n=103) was 266.53 ± 75.05 ng·kg·h/mL/mg, the Cmax/DW (NAT2 SA, n=103) was 420.47 ± 161.94 (pu = 0.018, pm = 0.018) ng*kg/mL*mg and the t1/2 (NAT2 SA, n=103) was 2.62 ± 0.83 h. The tmax (NAT2 SA, n=103) was 0.49 ± 0.24 h, the “AUC0-∞/DW” value [1] was 265.80 ± 73.86 ng·kg·h/mL/mg and the Cmax/DW [1] was 401.10 ± 159.35 ng·kg/mL/mg. The t1/2 [1] was 2.71 ± 0.89 h, the tmax [1] was 0.51 ± 0.24 h and the “AUC0-∞/DW” value [2] was 258.87 ± 34.73 ng·kg·h/mL/mg. For the same compound, the Cmax/DW [2] was 473.14 ± 99.07 ng·kg/mL/mg, the t1/2 [2] was 2.22 ± 0.81 h and the tmax [2] was 0.35 ± 0.11 (pu = 0.038 pm = 0.032) h. The “AUC0-∞/DW” value [3] was 267.52 ± 75.21 ng·kg·h/mL/mg, the Cmax/DW [3] was 415.96 ± 161.85 ng·kg/mL/mg and the t1/2 [3] was 2.70 ± 0.89 h. The tmax [3] was 0.49 ± 0.23 h, the “AUC0-∞/DW” value [4] was 211.83 ± 36.15 ng·kg·h/mL/mg and the Cmax/DW [4] was 266.58 ± 130.60 (pu = 0.022, pm = 0.003) ng*kg/mL*mg. The t1/2 [4] was 2.24 ± 0.71 h, the tmax [4] was 0.67 ± 0.24 (pu = 0.018) h and the “AUC0-∞/DW” value [5] was 265.29 ± 75.63 ng·kg·h/mL/mg. The Cmax/DW [5] was 411.77 ± 164.35 ng·kg/mL/mg, the t1/2 [5] was 2.66 ± 0.89 h and the tmax [5] was 0.49 ± 0.24 h. The “AUC0-∞/DW” value (Total, n=118) was 265.16 ± 74.74 ng·kg·h/mL/mg, the Cmax/DW (Total, n=118) was 409.63 ± 163.00 ng·kg/mL/mg and 409.63 ± 163.01 ng·kg/mL/mg and the t1/2 (Total, n=118) was 2.68 ± 0.89 h. For the same compound, the tmax (Total, n=118) was 0.49 ± 0.24 h, the “AUC0-∞/DW” value (UGT1A6 rs7592281 G/G, n=111) was 264.10 ± 73.64 ng·kg·h/mL/mg and the Cmax/DW (UGT1A6 rs7592281 G/G, n=111) was 409.07 ± 159.30 ng·kg/mL/mg. For the same compound, the t1/2 (UGT1A6 rs7592281 G/G, n=111) was 2.66 ± 0.89 h, the tmax (UGT1A6 rs7592281 G/G, n=111) was 0.48 ± 0.22 h and the “AUC0-∞/DW” value (UGT1A6 rs7592281 G/T, n=7) was 281.88 ± 95.76 ng·kg·h/mL/mg. For the same compound, the Cmax/DW (UGT1A6 rs7592281 G/T, n=7) was 418.57 ± 229.87 ng·kg/mL/mg, the t1/2 (UGT1A6 rs7592281 G/T, n=7) was 3.03 ± 0.72 h and the tmax (UGT1A6 rs7592281 G/T, n=7) was 0.70 ± 0.32 (pu = 0.021, pm = 0.029) h. For the same compound, the “AUC0-∞/DW” value (Women, n=65) was 254.19 ± 74.50 ng·kg·h/mL/mg, the Cmax/DW (Women, n=65) was 378.42 ± 156.70 ng·kg/mL/mg and the t1/2 (Women, n=65) was 2.98 ± 0.80 h. The tmax (Women, n=65) was 0.48 ± 0.19 h, the “AUC0-∞” value (men) was 3.71 ± 0.88 ng·h/mL and the “AUC0-∞/DW” value [6] was 197.49 ng·kg·h/mL/mg. For the same compound, the Cmax/DW [6] was 339.71 ng·kg/mL/mg and the “AUC0-∞” value (women) was 4.29 ± 1.41 ng·h/mL.
